In PubChem BioAssay (NCI):
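1) Cells in 96-well plates. 2) Compound, 48 h, 5 concentrations. 3) Linear interpolation between surrounding doses. 4) Unreached endpoint = highest concentration. The concentration for 50% growth inhibition is given as GI50. The concentration for full growth arrest is given as TGI.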

Legend:
Test in all cases: growth of human tumour cells (NCI), 48 h
HOP-62 NSCLC = test system: HOP-62 NSCLC
HOP-92 NSCLC = test system: HOP-92 NSCLC
K-562 leukemia = test system: K-562 leukemia
LOX IMVI melanoma = test system: LOX IMVI melanoma
OVCAR-8 ovarian = test system: OVCAR-8 ovarian
SF-539 CNS = test system: SF-539 CNS
SK-MEL-28 melanoma = test system: SK-MEL-28 melanoma
SNB-75 CNS = test system: SNB-75 CNS
HS 578T breast = test system: HS 578T breast
T-47D breast = test system: T-47D breast

Compound | TGI (HOP-62 NSCLC) [µM] | TGI (HOP-92 NSCLC) [µM] | TGI (K-562 leukemia) [µM] | TGI (LOX IMVI melanoma) [µM] | TGI (OVCAR-8 ovarian) [µM] | TGI (SF-539 CNS) [µM] | TGI (SK-MEL-28 melanoma) [µM] | TGI (SNB-75 CNS) [µM] | GI50 (HOP-62 NSCLC) [nM] | GI50 (HOP-92 NSCLC) [nM] | GI50 (HS 578T breast) [nM] | TGI (HS 578T breast) [µM] | GI50 (K-562 leukemia) [µM] | GI50 (OVCAR-8 ovarian) [nM] | GI50 (SNB-75 CNS) [nM] | GI50 (T-47D breast) [nM] | TGI (T-47D breast) [µM] | GI50 (LOX IMVI melanoma) [µM] | GI50 (SF-539 CNS) [µM] | GI50 (SK-MEL-28 melanoma) [µM]
O=C(O)C1=C(C(=O)O)Oc2ccccc2O1 | > 100 | > 100 | > 100 | > 100 | > 100 | > 100 | > 100 | > 100 | – | – | – | – | – | – | – | – | – | – | – | –
CN(C)CCS(=O)(=O)Nc1cc(-c2ccc3ncnc(Nc4ccc(F)c(Cl)c4)c3c2)cnc1Cl | > 100 | 0.513 | > 54.5 | – | > 51.7 | – | – | > 100 | 473 | 75.7 | 320 | 10.8 | 2.95 | 1770 | 282 | 94.1 | 0.635 | – | – | –
CCOC(=O)C1=CSC2=NC3=C(CCC/C3=C\c3cc(OC)c(OC)c(OC)c3)C(c3cc(OC)c(OC)c(OC)c3)N12 (stereo not given) | > 100 | 7.5 | – | – | > 100 | – | – | > 100 | 1430 | 818 | 2470 | > 100 | – | 376 | 3740 | 3830 | > 100 | – | – | –
CC1=C(C(=O)CC(=O)C(=O)Nc2ccccc2C)Sc2ccccc2N1 | > 100 | > 100 | > 100 | > 57.4 | > 100 | > 100 | > 100 | > 100 | – | – | – | – | – | – | – | – | – | – | – | –
CC(C)c1cc(C(C)C)c(Cl)c(Cl)c1O (tested in a mixture with another compound) | > 100 | 27.9 | 37.9 | > 100 | 76.1 | 49 | 42.4 | – | – | – | – | 38.5 | – | – | – | – | – | – | – | –
NNC(=O)N/N=C1\CNC(=O)C(=O)C1c1nc2ccccc2s1 (stereo not given) | > 100 | > 100 | > 100 | > 100 | > 100 | > 100 | > 100 | > 100 | – | – | – | – | – | – | – | – | – | – | – | –
O=S(=O)(Cc1ccccc1)SCc1ccccc1 | > 100 | 51.2 | 33.5 | 30.9 | 28.8 | 37.8 | 97.2 | > 100 | – | – | – | – | – | – | – | – | – | – | – | –
O=C(CN(/C=C/C(=O)C(F)(F)F)c1ccccc1)c1ccc(F)cc1 | > 100 | 90.4 | 52.6 | 37.6 | > 100 | 63.8 | > 100 | – | 75100 | 24800 | 2570 | 8.33 | 18.1 | 47400 | – | 35300 | > 100 | 15.5 | 28.7 | 54.8
O=CC(O)C(O)C(OC1OC(CO)C(O)C(O)C1O)C(O)CO (stereo not given) (tested in a mixture with another compound) | > 100 | > 100 | 98.7 | – | > 100 | > 100 | > 100 | > 100 | – | – | – | > 100 | – | – | – | – | > 100 | – | – | –
Nc1c(-c2nc3ccccc3s2)[n+]([O-])c2ccccc2[n+]1[O-] | 78.5 | 62.3 | > 100 | – | > 100 | 78.8 | 61.5 | 76.5 | – | – | – | – | – | – | – | – | – | – | – | –
O=C1c2ccoc2C(=O)c2oc(=O)ccc21 | > 61.1 | 39.8 | 22.4 | 10.7 | 14.9 | 8.31 | 11.5 | 15.6 | – | – | – | – | – | – | – | – | – | – | – | –
Cc1c(C)c2ccc(OC(C)C(=O)O)cc2oc1=O (stereo not given) | > 100 | > 100 | > 100 | > 100 | > 100 | > 100 | > 100 | > 100 | – | – | – | – | – | – | – | – | – | – | – | –
Cn1cc(NC(=O)c2cc(NC(=O)CCCCCCCC(=O)Nc3cc(C(=O)Nc4cc(C(=O)NCCC(=N)N)n(C)c4)n(C)c3)cn2C)cc1C(=O)NCCC(=N)N | > 100 | > 100 | > 100 | 28.8 | 42.9 | 33.1 | 26.3 | 70.8 | – | – | – | – | – | – | – | – | – | – | – | –
CN1CC[C@]23c4c5ccc(O)c4OC2c2[nH]ncc2C[C@H]3[C@H]1C5 (stereo not given in full) | > 100 | > 100 | > 100 | > 100 | > 100 | – | > 100 | > 100 | – | – | – | > 100 | – | – | – | – | > 100 | – | – | –
Cc1nn2c(-c3nc4cc(Cl)c(Cl)cc4[nH]3)c(-c3ccc(F)cc3)nc2s1 | 7.26 | – | > 100 | > 100 | 15 | 11.1 | > 100 | 3.71 | 1930 | – | 2780 | > 29.6 | > 100 | 2110 | 1560 | 1950 | 14.5 | 2.79 | 2.53 | 7.4
Nc1ncnc2sc(Nc3ccccc3)nc12 | > 100 | > 100 | > 100 | > 100 | > 100 | > 100 | > 100 | > 100 | – | – | – | – | – | – | – | – | – | – | – | –
CCOc1ccc(/C=C2/C(=O)N=C(N)N=C2N)cc1OCC | – | > 100 | > 100 | > 100 | > 100 | – | > 100 | > 100 | – | – | – | – | – | – | – | – | – | – | – | –
Nc1nc(-c2ccccc2)cc(-c2cc(Cl)ccc2O)n1 | 85.5 | > 100 | > 100 | > 100 | > 100 | > 100 | > 100 | 69 | – | – | – | – | – | – | – | – | – | – | – | –
Cc1cc(OC(=O)c2c(C)cc(OC(=O)c3c(C)cc(O)cc3O)cc2O)cc(O)c1C(=O)O | > 100 | > 100 | > 100 | > 100 | > 100 | > 100 | > 100 | > 100 | – | – | – | – | – | – | – | – | – | – | – | –
O=C(Nc1ccc(Cl)c(Cl)c1)C1C(=O)N(c2ccc(Cl)c(Cl)c2)C(=O)/C1=N\O (stereo not given) | > 100 | > 100 | > 100 | 87.7 | > 100 | > 100 | 82.8 | > 100 | – | – | – | – | – | – | – | – | – | – | – | –
O=C(NN1C(=O)C(Cl)C1c1c(O)ccc2ccccc12)c1ccccc1O (stereo not given) | – | – | > 100 | > 100 | > 100 | > 100 | > 100 | > 100 | – | – | – | – | – | – | – | – | – | – | – | –
